What was measured:
[1] = system: contrast-induced acute kidney injury (CIAKI) mice; experiment: CIAKI mouse model: renal function (serum creatinine, NGAL, KIM-1); format: in vivo, C57/BL6 mice
Description: Female mice were injected with 10 gI/kg of Visipaque (iodixanol) via the tail vein. […] For inhibition of the EP4s, mice were treated with 0.2 mg/kg/day of ONO-AE3-208 by subcutaneous injection for 14 days. Serum and kidney tissue were collected 48 h after the iodixanol injection.
Renal function was assessed by determining the serum levels of creatinine (Arbor Assays, Ann Arbor, MI, USA), NGAL (R&D Systems), and KIM-1 (R&D Systems) at 48 h after the iodixanol injection.

[2] = system: mice with ischemic AKI (bilateral renal IRI); experiment: Renal IRI (ischemic AKI) mouse model: renal function markers; format: in vivo, C57/BL6 mice
Description: Briefly, mice were anesthetized with isoflurane using a vaporizer, and bilateral renal arteries were clamped for 30 min (2, 49). After the ischemic time, clamps were released to induce blood reperfusion. […] Serum and kidney tissue were collected 24 h after renal IRI. […] After reperfusion for 24 h, kidney tissues (˜20 mg) were homogenized in cold PBS containing indomethacin (10 μg/mL) and then centrifuged for 10 min at 12,000 rpm. Protein concentrations of supernatant were determined by BCA assay (ThermoFisher Scientific, Rockford, IL). The PGE2 level was measured using a PGE2 ELISA kit (R&D Systems, Minneapolis, MN) in triplicate. PGE2 levels were expressed as nanograms of PGE2 per milligram of protein. Renal function was assessed by determining the serum levels of blood urea nitrogen (BUN; Abcam), serum creatinine (Agilent 6410 LC-MS/MS, Agilent, Santa Clara, CA), lipocalin-2 (R&D Systems), and kidney injury molecule-1 (KIM-1; R&D Systems) after reperfusion for 24 h. Measurement of serum creatinine was by HPLC. Serum creatinine was assessed using an Agilent 6410 LC-MS/MS system coupled with an Agilent 1200 series HPLC system (Agilent). […] The mixture was centrifuged at 13,000 rpm for 10 min after vigorous vortex, and 1 μL of supernatant was then injected into the LC-MS/MS system. The chromatography separation was performed on a Hypersil GOLD C18 column (150×2.1 mm, 3 m, Thermo Scientific) using a mobile phase of 0.1% formic acid solution and acetonitrile [70:30 (vol/vol)]. The flow rate was 0.2 mL/min. Electrospray ionization was performed in the positive ion mode. The capillary voltage was set at 4,000 V. Nitrogen as the nebulizing gas was set at 15 psi, and the drying gas temperature was set at 300° C., with a flow rate of 6 L/min. The multiple-reaction monitoring mode using specific precursor/production transition was used for quantification. […] The peak areas for all analytes were integrated automatically using Agilent Mass Hunter Analysis software (version B.01.04).

[3] = system: contrast-induced acute kidney injury (CIAKI) mice; experiment: CIAKI mouse model: renal blood flow (laser Doppler flux); format: in vivo, C57/BL6 mice
Description: Total RBF was assessed by measuring renal Doppler flux using noninvasive laser Doppler flowmetry (PeriFlux System 5000, Perimed AB, Sweden). Laser Doppler probes were placed on the kidney surface to measure the renal flux. The flux was measured 48 h after CM administration. The relative increase represented the percentage increase in renal blood flow from baseline to peak for each test. Statistical significance was set as p<0.05.

[4] = system: human renal proximal tubular epithelial cells (hRPTECs); experiment: hRPTEC cell viability (MTT assay) with iodixanol; format: cell-based; conditions: iodixanol 50 mgI/mL, 24 h; PGE1 100 ng/mL, PGE2 100 nM vs CM vehicle; CM vs normal control
Description: 3-(4,5-Dimethyl thiazol-2-yl)-2,5-diphenyl tetrazolium bromide (MTT) assay was used to assess cell viability. The hRPTECs were cultivated in 96-well plates at a density of 10^5 cells/mL and then incubated for 24 h. […] Then, 10 µM MTT (Sigma-Aldrich) was added to each well for an additional 4 h. The blue MTT formazan precipitate was dissolved in 100 mL dimethyl sulfoxide. The absorbance at 540 nm was measured with a multi-well plate reader. Cell viability was expressed as a percentage of the no-treatment cells, as the mean value±standard deviation of the six independent experiments.

[5] = system: contrast-induced acute kidney injury (CIAKI) mice; experiment: CIAKI mouse model: necrotic and apoptotic cell death, gross findings; format: in vivo, C57/BL6 mice; conditions: 48 h after CM
Description: Kidneys were harvested at 48 h after the CM injection, fixed in 4% phosphate-buffered formalin, and embedded in paraffin. To evaluate necrosis, […] paraffin sections were stained with hematoxylin and eosin. Tubular injury was scored semi-quantitatively according to a system by a pathologist who examined at least 20 separate fields (400× magnification) in the outer medulla, which is the zone most sensitive to ischemic injury. The scoring system was as follows: 0, no damage; 1, patchy isolated unicellular necrosis; 2, tubular necrosis <25%; 3, tubular necrosis 25-50%; and 4, tubular necrosis >50%. At least 20 consecutive high-power fields per section were scored by two operators blind to the details of the experiment. To analyze the frequency of apoptosis, […] paraffin sections were subjected to terminal deoxynucleotidyl transferase-mediated dUTP nick-end labeling (TUNEL) assay (Millipore, Temecula, CA, USA) according to the manufacturer's protocol. Four […] paraffin sections were incubated with the TUNEL reaction mixture at 37° C. for 1 h, followed by incubation with a horseradish peroxidase-conjugated detection antibody. The signals were visualized using diaminobenzidine (Sigma-Aldrich). After counterstaining with Mayer's hematoxylin, TUNEL-positive cells were counted in at least five separate fields (640× magnification) in the outer medulla, and the apoptosis index (%, number of apoptosis cells/total number of cells) was calculated using GENASIS software.

[6] = system: human renal proximal tubular epithelial cells (hRPTECs); experiment: hRPTEC apoptosis by flow cytometry with iodixanol; format: cell-based
Description: Human renal proximal tubular epithelial cells (hRPTECs) were purchased from the American Type Culture Collection (#PCS-400-010TM, Manassas, VA, USA). These cells were grown in 75 cm^2 flasks in Renal Epithelial Cell Basal Medium (PCS-400-030TM, ATCCVR) supplemented with Renal Epithelial Cell Growth Kit (PCS-400-040TM, ATCCVR).
After the treatment described in the section above, the hRPTECs were pelleted by centrifugation at 1800 rpm for 10 min and incubated with annexin V fluorescein isothiocyanate and propidium iodide using an Apoptosis Detection Kit I (#556547, BD Biosciences, San Jose, CA, USA) according to the manufacture's instruction. Then quantification was conducted using a FACSC flow cytometer with Cell Quest software (BD Biosciences).

mice = experiment: Induction of CIAKI by intravenous contrast media in mice; format: in vivo, C57/BL6 mice; conditions: 10 gI/kg iv; for Cr vs normal control / KIM-1 vs normal control / NGAL vs normal control: 48 h after administration
Description: The two different […] in terms of viscosity and osmolality were administered intravenously to 5 mice for each group. Ten grams of iodine per body weight (gI/kg) of each CM was injected by a 26-gauge syringe through the tail vein. The blood samples for the analysis of functional assessment of kidney injury such as Cr, NGAL, and KIM-1 were taken at 48 h after administration (FIGS. 10(A, B)).

[7] = system: mice with ischemic AKI (bilateral renal IRI); experiment: Renal IRI model: renal vasodilation and renal Doppler flux (RBF); format: in vivo, C57/BL6 mice; conditions: 24 h following IRI
Description: The inner arteriolar area of the outer medulla was determined using α-smooth muscle actin (α-SMA)-stained sections. Kidneys were removed without perfusion under inhalational isoflurane anesthesia, divided into three pieces horizontally, immediately fixed in 10% formalin, and then embedded in paraffin. The inner area of α-SMA-positive vessels in the outer medulla was measured using ImageJ. The results are expressed as average areas of renal arteries in the outer medulla. As a surrogate for RBF, we used noninvasive laser Doppler flowmetry (periflux system 5000, Perimed) to measure flux, placing laser-Doppler probes at a fixed position on the kidney surface and recording renal cortical measurements. […] The relative increase represents the percent increase in RDF from baseline to peak for each test.

[8] = system: mice with ischemic AKI (bilateral renal IRI); experiment: Renal IRI model: proinflammatory cytokines and HMGB1; format: in vivo, C57/BL6 mice; conditions: 24 h after renal IRI, vs IRI-vehicle mice
Description: Inflammatory cytokine mRNA and protein levels were measured by real-time PCR and ELISA. Kidney tissue and serum were harvested after reperfusion for 24 h. Total RNA was extracted from frozen kidney tissue using TRIzol reagent (ThermoFisher Scientific) according to the manufacturer's protocol. RNA was converted to cDNA using oligo-dT primers. IL-17, TNF-α, and IL-1b mRNA levels were determined by real-time PCR. Serum IL-17 (R&D Systems), TNF-α (R&D Systems), and IL-10 (R&D Systems) were measured using commercial ELISA kits according to the manufacturer's instructions.

[9] = system: mice with ischemic AKI (bilateral renal IRI); experiment: Renal IRI model: PGE2 (EP1-EP4) and adenosine A2A receptor expression; format: in vivo, C57/BL6 mice; conditions: 24 h post-IRI
Description: PGE2 receptors (EP1, EP2, EP3, and EP4) and adenosineA2A receptor mRNA levels were deter-mined by real-time PCR. Their protein levels were determined by Western blot assay and immunofluorescence analysis.

[10] = system: mice with ischemic AKI (bilateral renal IRI); experiment: Renal IRI model: cAMP, AMP and adenosine levels; format: in vivo, C57/BL6 mice; conditions: 24 h post-IRI, vs sham mice
Description: After reperfusion for 24 h, kidney tissues were harvested, homogenized in 10 volumes of 0.1 M HCl, and centrifuged for 10 min at 12,000 rpm. cAMP levels in kidney tissues and serum were measured using a cAMP Complete ELISA kit (Enzo Life Science, Farmingdale, NY). AMP and adenosine in kidney tissue were assessed by Agilent 6410 LC-MS/MS. Serum adenosine was measured using an assay kit (Abnova, Walnut, CA).

[11] = system: mice with ischemic AKI (bilateral renal IRI); experiment: Renal IRI model: necrotic and apoptotic cell death, gross pathology; format: in vivo, C57/BL6 mice; conditions: 24 h after renal IRI; 5 mg/kg ip three times
Excerpt: To evaluate necrosis, 5-μm-thick paraffin sections were stained with hematoxylin and eosin. Tubular injury of individual slides was scored semi-quantitatively according to a scoring system by a pathologist in a blinded manner. The scoring system was as follows: 0, no damage; 1, patchy isolated unicellular necrosis; 2, tubular necrosis <25%; 3, tubular necrosis 25-50%; and 4, tubular necrosis >50%. To analyze the frequency of apo ptosis, 5-μm-thick paraffin sections were subjected to a TUNEL assay (Millipore, Temecula, CA) according to the manufacturer's protocol. TUNEL-positive cells were counted in at least five separate fields (64 magnification) in the outer medulla, and the apoptosis index (in %, number of apoptosis cells/total number of cells) was calculated using GENASIS software.

[12] = iodixanol 10 gI/kg + vehicle, 48 h after CM

SMILES: CC(C(=O)Nc1cc(C#N)ccc1CCCC(=O)O)c1ccc(F)c2ccccc12 (stereo not drawn) [ONO-AE3-208]
- serum creatinine, absence or presence of ONO-AE3-208 ([1]; CIAKI mice (FIG. 15E), SW033291 line = CM + SW033291, ONO-AE3-208 line = CM + ONO-AE3-208 + SW033291): 1.51 ± 0.31 mg/dL
- serum NGAL, absence or presence of ONO-AE3-208 ([1]; CIAKI mice (FIG. 15F), SW033291 line = CM + SW033291, ONO-AE3-208 line = CM + ONO-AE3-208 + SW033291): 229.85 ± 27.12 ng/mL
- serum KIM-1, absence or presence of ONO-AE3-208 ([1]; CIAKI mice (FIG. 15G), SW033291 line = CM + SW033291, ONO-AE3-208 line = CM + ONO-AE3-208 + SW033291): 0.85 ± 0.26 ng/mL
- beneficial effects of SW033291 on BUN, serum creatinine, serum Kim-1 and RDF-inferred RBF ([2]; ONO-AE3-208 10 mg/kg co-administered with the three-dose schedule of SW033291 in IRI mice): substantially blocked
- increase in RBF by SW033291 treatment ([3]; ONO-AE3-208 with SW033291 (FIG. 15H)): blocked the increase

SMILES: CCCCC[C@H](O)/C=C/[C@H]1[C@H](O)CC(=O)[C@@H]1CCCCCCC(=O)O [PGE1, prostaglandin E1]
- serum creatinine, effect in words ([1]; CIAKI mice, 48 h after CM): decreased
- cell viability (MTT), in words [4]: did not show any difference
- TUNEL-positive cell proportions vs CIAKI mice, in words [5]: significantly lower
- renal injury score, effect in words [5]: No reduction
- vascular congestion in the outer medullary region (gross findings) [5]: prominent vascular congestion
- apoptotic rate vs CM vehicle group, in words ([6]; PGE1 100 ng/mL with iodixanol 50 mgI/mL): no differences
- preservation of RBF from CM-induced reduction, in words ([3]; 48 h after CM): did not

SMILES: CC(=O)N(CC(O)CN(C(C)=O)c1c(I)c(C(=O)NCC(O)CO)c(I)c(C(=O)NCC(O)CO)c1I)c1c(I)c(C(=O)NCC(O)CO)c(I)c(C(=O)NCC(O)CO)c1I (stereo not drawn) [Visipaque, iodixanol]
- serum KIM-1 in CM-treated mice [1, 12]: 1.41 ± 0.41 ng/mL
- serum NGAL in CM-treated mice [1, 12]: 299.71 ± 38.64 ng/mL
- serum creatinine in CM-treated mice [1, 12]: 1.94 ± 0.24 mg/dL
- cell viability (MTT), in words [4]: significantly lower
- necrosis and apoptosis (Renal injury score and TUNEL assay) vs normal control (mice; 48 h): significantly higher
- Cr vs normal control (mice): elevation
- KIM-1 vs normal control (mice): elevation
- NGAL vs normal control (mice): elevation
- increase of apoptosis rate of hRPTECs in the CM group compared to the normal group ([6]; iodixanol 50 mgI/mL, 24 h): more than 2.5 times

SMILES: CN(CC(O)CO)C(=O)c1c(I)c(NC(=O)C(CO)CO)c(I)c(C(=O)N(C)CC(O)CO)c1I (stereo not drawn) [Xenetix]
- Cr vs normal control (mice): significant increase
- KIM-1 vs normal control (mice): did not show significant differences
- NGAL vs normal control (mice): did not show significant differences

SMILES: COc1ccc2c(c1)c(CC(=O)O)c(C)n2C(=O)c1ccc(Cl)cc1 [indomethacin, reference compound]
- RDF-inferred RBF [7]: reduced
- HMGB1 levels in kidney tissue [8]: increased
- EP1 receptor mRNA levels [9]: increased
- EP4 receptor mRNA levels [9]: reduced
- levels of EP2 receptors [9]: no effect
- levels of EP3 receptors [9]: no effect
- renal cAMP [10]: reduced
- tissue congestion in the outer medulla (gross pathology) [11]: worsened
- BUN (serum) ([2]; 24 h after renal IRI, vs IRI-vehicle mice, dosing before and after IRI): increase
